Measured values: patent publication US20220117966A1, “METHOD OF TREATING FIBROSIS” (AstraZeneca AB, priority 2019, published 2022)
Where two headings read alike, the source gives them in different places.

Legend:
[1] = Pharmacokinetics (PK) of saracatinib in the bleomycin model; type: in vivo; conditions: mouse, mice; for Cmax: Day 21, dosed 1 hour prior to terminal blood draw; for concentration at 21 day: Day 21, not dosed before blood draw, read-out: Cmin +/− SD
[2] = tested on: bleomycin (Bleo) induced lung injury and fibrosis; test: Bleomycin model, lung hydroxyproline levels; type: in vivo, mice; conditions: saracatinib 1, 3 or 10 mg/kg BID vs pirfenidone 200 mg/kg BID and nintedanib 30 mg/kg BID, from day 7, day 21
Procedure: Bleomycin Sulfate was obtained from Sigma-Aldrich. The IU conversion to enzyme units (U) is approximately 1.5-2 U/mg. For delivery of 4 U/kg in 50 μL, a solution of […] was prepared in 0.9% NaCl. Bleomycin or vehicle was dosed on Day 0 intranasally. […] Body weights and clinical observations were recorded on days 7, 14, and 21. On day 21, mice were euthanized by cervical dislocation. One side of lung tissue was dissected and analyzed for hydroxyproline levels as an indicator of local collagen deposition, and the other side lung was fixed in Formalin for histopathology (Quantitative staining with sirius red).

[3] = tested on: TGFβ-stimulated NHLF (normal human lung fibroblasts); test: cells; type: cell-based; conditions: for IC50: Homo sapiens, Fibroblast; for cell viability / cell death / inhibition of αSMA (FIG. 2): TGF-beta1-stimulated human lung fibroblasts
Procedure: Normal human lung fibroblasts from a healthy donor (passage 5) were seeded in 96-well culture plates with 50,000 cells per cm^2 in DMEM culture medium with 10% FBS and 1% penicillin-streptomycin. […]. The cells were incubated for one hour before 0.123 ng/ml TGF-beta1 was added on top of the compound/vehicle treatment and the cells were incubated for 24 hours.
After 24 hours the medium was collected and analysed for IL-6 and the cells were either lysed for RNA isolation, DNA-synthesis and TaqMan quantitative PCR or fixated and stained for alpha-smooth muscle actin (αSMA) and with Hoechst nuclear staining. The percentage of cells staining positive for αSMA and thereby displaying the myofibroblast phenotype was determined using high content image analysis. The Ct-values from the quantitative PCR were normalised against the geomean Ct values of two reference-genes and presented as fold-expression over those reference genes (2^-delta Ct).

[4] = tested on: Airway basal cells (ABC) from IPF patients; test: Organoid formation assay; type: cell-based, human; conditions: for organoid formation of airway basal cells (FIGS. 4, 5 and 6): saracatinib 8, 25, 75, 210 or 600 nM, pirfenidone 1 mM, nintedanib 1 μM
Procedure: Airway Basal Cells (ABCs) either derived from IPF patients or Healthy Volunteers (HV) were cultured in Matrigel® (Corning in a transwell system with or without lung fibroblasts either derived from patients with IPF or normal lung for up-to 35 days in the incubator (5% CO2, 37° C.)).

[5] = tested on: human primary cell-based systems (BioMAP); test: DiscoverX BioMAP Combo ELECT panel, relative protein expression; conditions: saracatinib 3.3 μM, relative to vehicle control
Source text: BioMAP panels consist of human primary cell-based systems designed to model different aspects of the human body in an in vitro format. The 12 systems available in the Diversity PLUS panel allow test agent characterization in an unbiased way across a broad set of systems modelling various human disease states. BioMAP systems are constructed with one or more primary cell types from healthy human donors, with stimuli (such as cytokines or growth factors) added to capture relevant signalling networks that naturally occur in human tissue or pathological conditions. Systems recapitulate aspects of the systemic immune response including monocyte-driven Th1 inflammation (LPS system) or T cell stimulation (SAg system), chronic Th1 inflammation driven by macrophage activation (IMphg system) and the T cell-dependent activation of B cells that occurs in germinal centers (BT system). The BE3C system (Th1) and the BF4T system (Th2) represent airway inflammation of the lung, while the MyoF system models myofibroblast-lung tissue remodelling.
Each test agent generates a signature BioMAP profile that is created from the changes in protein biomarker readouts within individual system environments. Biomarker readouts (7-17 per system) are selected for therapeutic and biological relevance, are predictive for disease outcomes or specific drug effects and are validated using agents with known mechanism of action (MoA). Each readout is measured quantitatively by immune-based methods that detect protein (e.g., ELISA) or functional assays that measure proliferation and viability. BioMAP readouts are diverse and include cell surface receptors, cytokines, chemokines, matrix molecules and enzymes.
In the Combo ELECT panel, a 4×4 combination array is created to test all mixtures of two serially diluted single test agents/drugs.

[6] = Saracatinib AD Phase IIa (52 weeks), safety and tolerability; type: in vivo, human; conditions: Alzheimer's Disease patients
Lyn = Lyn (Homo sapiens, UniProt P07948); conditions: cited from earlier work
Sequence of Lyn (P07948 whole entry): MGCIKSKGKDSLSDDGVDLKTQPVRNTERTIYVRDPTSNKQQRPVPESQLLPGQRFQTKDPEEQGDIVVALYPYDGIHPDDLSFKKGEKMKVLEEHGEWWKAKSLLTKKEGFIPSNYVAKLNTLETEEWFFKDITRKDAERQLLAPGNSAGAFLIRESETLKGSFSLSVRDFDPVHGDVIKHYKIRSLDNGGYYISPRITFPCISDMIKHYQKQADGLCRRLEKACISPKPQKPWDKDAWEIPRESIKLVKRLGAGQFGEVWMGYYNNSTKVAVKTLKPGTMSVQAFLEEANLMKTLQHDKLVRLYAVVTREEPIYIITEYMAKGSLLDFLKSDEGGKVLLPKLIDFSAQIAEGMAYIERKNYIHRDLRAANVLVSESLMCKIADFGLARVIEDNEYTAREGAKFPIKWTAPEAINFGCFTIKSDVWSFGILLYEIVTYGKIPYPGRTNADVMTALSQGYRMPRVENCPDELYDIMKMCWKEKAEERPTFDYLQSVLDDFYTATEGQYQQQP

[7] = IPF patients, cited from earlier work
[8] = cited from earlier work
[9] = IPF patients; cited from earlier work
[10] = 24 h, read-out: Mean IC50 ACTA2 mRNA
[11] = 24 h, read-out: Mean IC50 COL1A1 mRNA
[12] = 24 h, read-out: Mean IC50 COL3A1 mRNA
[13] = 24 h, read-out: Mean IC50 FN1 mRNA
[14] = 24 h, read-out: Mean IC50 IL-6 protein
[15] = 100 mg or 125 mg per day, 52 weeks, n = 79

CN1CCN(CCOc2cc(OC3CCOCC3)c3c(Nc4c(Cl)ccc5c4OCO5)ncnc3c2)CC1 [Saracatinib, N-(5-chlorobenzo[d][1,3]dioxol-4-yl)-7-(2-(4-methylpiperazin-1-yl)ethoxy)-5-((tetrahydro-2H-pyran-4-yl)oxy)quinazolin-4-amine]
Cmax ([1]; 1 mg/kg BID oral gavage): 71.5 nM
concentration at 21 day ([1]; 1 mg/kg BID oral gavage): 2.52 nM
Cmax ([1]; 3 mg/kg BID oral gavage): 139 nM
concentration at 21 day ([1]; 3 mg/kg BID oral gavage): 8.41 nM
Cmax ([1]; 10 mg/kg BID oral gavage): 390 nM
concentration at 21 day ([1]; 10 mg/kg BID oral gavage): 31.8 nM
hydroxyproline levels after bleomycin induced lung injury and fibrosis (FIG. 1) [2]: compares favourably to pirfenidone (at much lower doses) and is potentially superior to nintedanib at clinically relevant doses
IC50 [3, 10]: 0.186 µM
IC50 [3, 11]: 1.01 µM
IC50 [3, 12]: 7.99 µM
IC50 [3, 13]: 0.526 µM
IC50 [3, 14]: 0.128 µM
IC50 ([3]; 24 h, read-out: Mean IC50 αSMA): 0.185 µM
cell viability / cell death [3]: without impacting cell viability
inhibition of αSMA (FIG. 2) [3]: dose-dependent inhibition of αSMA
cytotoxicity ([4]; ABC organoids, saracatinib 8 to 600 nM): non-cytotoxic
organoid formation of airway basal cells (FIGS. 4, 5 and 6) [4]: differentiated and uniquely efficacious
expression of MMP-9 (FIG. 7) [5]: decreased expression
expression of N-cadherin (FIG. 7) [5]: decreased expression
expression of TIMP-1 (FIG. 7) [5]: decreased expression
expression of VCAM-1 (FIG. 7) [5]: increased expression
expression of a-SMA (FIG. 7) [5]: increased expression
expression of sIL-6 (FIG. 7) [5]: decreased expression
expression of sIL-8 (FIG. 7) [5]: decreased expression
expression of sVEGF (FIG. 7) [5]: decreased expression
Treatment Discontinuations, clinical studies AD [6]: 8.2% (1.2%)
Anorexia [6, 15]: 3%
Decreased Appetite [6, 15]: 9%
Diarrhea [6, 15]: 27.8%
Nausea [6, 15]: 12.7%
Vomiting [6, 15]: 5.1%
Weight Decrease [6, 15]: 10%
IC50 (Lyn): 0.005 µM

Cc1ccc(=O)n(-c2ccccc2)c1 [Pirfenidone]
IC50 ([3]; TGFβ-stimulated NHLF, healthy donor 197 (n = 3), 24 hours, read-out: Mean IC50 ACTA2 mRNA): > 10 µM
IC50 ([3]; TGFβ-stimulated NHLF, healthy donor 197 (n = 3), 24 hours, read-out: Mean IC50 COL1A1 mRNA): > 10 µM
IC50 ([3]; TGFβ-stimulated NHLF, healthy donor 197 (n = 3), 24 hours, read-out: Mean IC50 COL3A1 mRNA): > 10 µM
IC50 ([3]; TGFβ-stimulated NHLF, healthy donor 197 (n = 3), 24 hours, read-out: Mean IC50 FN1 mRNA): > 10 µM
IC50 ([3]; TGFβ-stimulated NHLF, healthy donor 197 (n = 3), 24 hours, read-out: Mean IC50 IL-6 protein): > 10 µM
IC50 ([3]; TGFβ-stimulated NHLF, healthy donor 197 (n = 3), 24 hours, read-out: Mean IC50 αSMA): > 10 µM
cell viability / cell death [3]: some evidence of cell death
inhibition of αSMA (FIG. 2) [3]: inhibited αSMA, but at supra-therapeutic concentrations
organoid formation of airway basal cells (FIGS. 4, 5 and 6) [4]: little to no effect
Anorexia ([7]; 52 weeks, n = 623): 13%
Diarrhea ([7]; 52 weeks, n = 623): 24.6%
Nausea ([7]; 52 weeks, n = 623): 35.5%
Vomiting ([7]; 52 weeks, n = 623): 12.7%
Weight Decrease ([7]; 52 weeks, n = 623): 10%
Decreased Appetite ([7]; Pirfenidone Medical Review, pirfenidone n = 345): 9%^3
Treatment Discontinuations, clinical studies IPF [7]: 14.6% (9.6%)
Treatment Discontinuations, Real-World data [8]: 20.9%

COC(=O)c1ccc2c(c1)NC(=O)/C2=C(\Nc1ccc(N(C)C(=O)CN2CCN(C)CC2)cc1)c1ccccc1 [Nintedanib]
IC50 [3, 10]: 1.75 µM
IC50 [3, 11]: 0.536 µM
IC50 [3, 12]: 0.725 µM
IC50 [3, 13]: 0.624 µM
IC50 [3, 14]: 0.311 µM
IC50 ([3]; 24 h, read-out: Mean IC50 αSMA): 0.601 µM
cell viability / cell death [3]: some evidence of cell death
inhibition of αSMA (FIG. 2) [3]: inhibited αSMA, but at supra-therapeutic concentrations
organoid formation of airway basal cells (FIGS. 4, 5 and 6) [4]: little to no effect
Treatment Discontinuations, clinical studies IPF [9]: 21% (15%)
Treatment Discontinuations, Real-World data [8]: 26.3%
